The source of these data is paper PMC5808083, “Carfilzomib resistance due to ABCB1/MDR1 overexpression is overcome by nelfinavir and lopinavir in multiple myeloma” (Leukemia, 2017).

Structures are written as SMILES. Read-outs that look alike come from different tables or passages of the source.

Data set [1] deals with T1, AMO-CFZ clone #1 (upregulated ABCB1).
T1 construct: AMO-1 derived, carfilzomib-adapted, clone 1 CRISPR/Cas9 clone retaining ABCB1 overexpression
Briefly: cells. More on the design: species or system AMO-CFZ clones 1 and 7; Cytotoxicity dose-response of myeloma drugs on AMO-CFZ clones with or without ABCB1, IC50. Conditions: ABCB1 upregulated clone #1. The text has this: (§1) To dissect the role of ABCB1 overexpression for the activity of standard myeloma drugs we compared the cytotoxic effects of such drugs on AMO-CFZ cells with (clone #1) or without such ABCB1 expression (clone 7) (Figure 3c and Supplementary Table S4). To score for good versus poor ABCB1-substrate myeloma drugs, we calculated the ratio of IC50 values between the ABCB1-containing and the ABCB1-deficient clone for each of the myeloma drug. […] (a) Western blot evaluation of the ABCB1 depletion in AMO-CFZ clones obtained by CRISPR/Cas9 genome editing tool. (b) Dose–response of AMO-CFZ clones with depleted ABCB1 to CFZ. Corresponding IC50 values are presented in Supplementary Table S3. (c) Dose–response of selected AMO-CFZ clones 1 and 7 to CFZ and convectional drugs used in the treatment of MM. (d) Dose–response of AMO-CFZ clones 1 and 7 to approved PI or those in clinical development. Corresponding IC50 values are presented in Supplementary Table S4. To directly address the functional role of ABCB1 for CFZ resistance, we eliminated ABCB1 protein in AMO-CFZ cells by CRISPR/Cas9 (for example, clone 7) (Figure 3a). We observed an inverse correlation between the levels of ABCB1 and myeloma cell sensitivity to CFZ (Figure 3b, Supplementary Table S3). […] Overexpressed ABCB1 is therefore a therapeutic target for CFZ-resistant myeloma.

Data set [2] deals with T2, AMO-CFZ clone #7 (depleted ABCB1).
T2 construct: AMO-1 derived, carfilzomib-adapted, clone 7 ABCB1 depleted by CRISPR/Cas9 (subtotal elimination)
Description: cells. Conditions: ABCB1 depleted clone #7. Set-up: species or system AMO-CFZ clones 1 and 7; Cytotoxicity dose-response of myeloma drugs on AMO-CFZ clones with or without ABCB1, IC50.
Source text: as §1

Another data set deals with T3, AMO-CFZ.
T3 construct: AMO-1 derived, carfilzomib-adapted, ABCB1 overexpressing
Description: cells. Set-up: species or system AMO-1, AMO-BTZ, AMO-CFZ and AMO-CFZ clones #1 and #7; cell viability, MTS tetrazolium (CellTiter 96 AQueous One Solution), continuous treatment. Conditions: Homo sapiens, AMO1, 48 h. Here is the method: (§2) Generation of AMO-CFZ Ub-G67V-GFP cells AMO-CFZ cells were electroporated with a plasmid containing Ub-G76V-GFP [1] (obtained from Nico Dantuma; Addgene plasmid #11941) and subsequently cultured in the presence of selecting antibiotic G418 (500ng/ml, Gibco/Invitrogen, MA, USA). Subclones were obtained using MethoCult (StemCell Technologies, USA) and the clone with highest accumulation of fluorescence after BTZ treatment was chosen for further analysis. Assessment of cell viability Viability of cell lines was determined after 48h of treatment by MTS tetrazolium compound using CellTiter 96® AQueous One Solution) (Promega, WI, USA) according to manufactures protocol. PgP-Glo assay PgP-Glo assay (Promega, WI, USA) was performed according to manufacturer recommendations.  Figure 2 Comparison of dose–response of AMO-1 (sensitive) vs AMO-BTZ and AMO-CFZ (resistant) cells treated with PIs (BTZ and CFZ). (a) Residual activity of proteasome subunits visualized by activity-based probe labeling in intact cells after 1 h pulse treatment with indicated PIs. (b) Cell viability was measured after 48 hours of continuous treatment. Corresponding IC50 values are presented in Supplementary Table S2.  Figure 7 Sensitivity profile of ABCB1 inhibitors co-treatment with PIs used in the clinic or in clinical development in AMO-1, AMO-BTZ and AMO-CFZ cell lines. Dose–response curves of PI co-treated with NFV (10 μM) and LPV (10 μM). Corresponding IC50 values are presented in Supplementary Table S7.

The test system of another data set is AMO-1. Briefly: cells. More on the design: species or system AMO-BTZ, AMO-CFZ and AMO-CFZ clones #1 and #7; cell viability, MTS tetrazolium (CellTiter 96 AQueous One Solution), continuous treatment. Conditions: Homo sapiens, AMO1, 48 h. Here is the method:
as §2, with “recommendations.” for “recommendations. ”, “S2.” for “S2. ”, “Dose–response curves of PI co-treated with NFV (10 μM) and LPV (10 μM). Corresponding IC50 values are presented in Supplementary Table S7.” left out

For another data set, the system named is T4, AMO-BTZ.
T4 construct: AMO-1 derived, bortezomib-adapted
Briefly: cells. Set-up: species or system AMO-1, AMO-CFZ and AMO-CFZ clones #1 and #7; cell viability, MTS tetrazolium (CellTiter 96 AQueous One Solution), continuous treatment. Conditions: Homo sapiens, AMO1, 48 h. Here is the method: as §2, with “recommendations.” for “recommendations. ”, “S2.” for “S2. ”, “Dose–response curves of PI co-treated with NFV (10 μM) and LPV (10 μM). Corresponding IC50 values are presented in Supplementary Table S7.” left out

For data set [3], the system named is T1, AMO-CFZ clone #1 (upregulated ABCB1). Description: cells. More on the design: species or system AMO-1, AMO-BTZ, AMO-CFZ and AMO-CFZ clones #1 and #7; cell viability, MTS tetrazolium (CellTiter 96 AQueous One Solution), continuous treatment. As to conditions: Homo sapiens, AMO1, 48 h; CFZ alone. Here is the method: as §2
Data set [4] has the same test system. Description: cells. More on the design: species or system AMO-1, AMO-BTZ, AMO-CFZ and AMO-CFZ clones #1 and #7; cell viability, MTS tetrazolium (CellTiter 96 AQueous One Solution), continuous treatment. As to conditions: Homo sapiens, AMO1, 48 h; CFZ alone. Here is the method:
as §2, with “recommendations.” for “recommendations. ”, “S2.” for “S2. ”, “Dose–response curves of PI co-treated with NFV (10 μM) and LPV (10 μM). Corresponding IC50 values are presented in Supplementary Table S7.” left out
This is another data set of the same source.

The target of the next data set is ABCB1 (Homo sapiens, UniProt P08183). Briefly: MitoTracker Green FM and MVB003 efflux (flow cytometry) in ABCB1-overexpressing AMO-CFZ cells. On the technique in general: Flow cytometry measures light scatter and fluorescence of single cells or particles in a stream.
Sequence of ABCB1 (P08183 whole entry): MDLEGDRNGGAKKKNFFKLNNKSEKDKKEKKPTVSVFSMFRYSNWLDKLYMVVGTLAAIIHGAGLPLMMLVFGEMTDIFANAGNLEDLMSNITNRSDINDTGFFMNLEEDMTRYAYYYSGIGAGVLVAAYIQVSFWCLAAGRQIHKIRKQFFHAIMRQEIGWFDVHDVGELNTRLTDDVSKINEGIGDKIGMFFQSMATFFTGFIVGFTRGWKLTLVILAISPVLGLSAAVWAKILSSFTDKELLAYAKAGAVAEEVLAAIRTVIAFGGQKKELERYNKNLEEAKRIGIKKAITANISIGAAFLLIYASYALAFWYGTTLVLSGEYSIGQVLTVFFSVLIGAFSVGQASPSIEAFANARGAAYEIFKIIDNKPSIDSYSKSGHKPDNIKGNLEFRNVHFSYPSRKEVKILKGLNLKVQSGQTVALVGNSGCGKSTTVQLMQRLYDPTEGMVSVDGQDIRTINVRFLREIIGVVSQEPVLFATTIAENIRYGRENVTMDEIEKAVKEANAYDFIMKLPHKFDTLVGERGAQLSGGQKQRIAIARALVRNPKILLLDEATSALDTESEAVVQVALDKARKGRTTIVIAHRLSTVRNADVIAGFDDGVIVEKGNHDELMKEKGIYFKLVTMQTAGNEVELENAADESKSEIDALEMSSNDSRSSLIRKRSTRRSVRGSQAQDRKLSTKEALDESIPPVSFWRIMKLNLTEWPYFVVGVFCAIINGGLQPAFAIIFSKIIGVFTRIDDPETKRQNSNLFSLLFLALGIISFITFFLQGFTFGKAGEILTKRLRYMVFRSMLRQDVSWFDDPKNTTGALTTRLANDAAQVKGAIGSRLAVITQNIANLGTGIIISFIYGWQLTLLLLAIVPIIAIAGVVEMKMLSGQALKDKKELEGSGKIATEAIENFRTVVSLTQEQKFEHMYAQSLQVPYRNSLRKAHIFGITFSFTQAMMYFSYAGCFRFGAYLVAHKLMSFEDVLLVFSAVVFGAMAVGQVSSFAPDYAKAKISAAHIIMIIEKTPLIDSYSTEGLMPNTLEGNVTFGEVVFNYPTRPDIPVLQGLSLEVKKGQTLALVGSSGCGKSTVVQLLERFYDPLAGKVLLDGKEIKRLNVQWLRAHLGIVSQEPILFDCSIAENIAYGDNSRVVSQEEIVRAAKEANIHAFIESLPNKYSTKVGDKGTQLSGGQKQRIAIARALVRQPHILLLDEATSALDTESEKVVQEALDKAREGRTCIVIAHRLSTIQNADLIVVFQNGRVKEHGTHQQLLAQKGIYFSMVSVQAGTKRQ

For `CC(C)C[C@H](NC(=O)[C@H](Cc1ccccc1)NC(=O)c1cnccn1)B(O)O` [BTZ, bortezomib], the IC50 in data set [1] came to 69.3 nM; in data set [2], 26.8 nM; in the data set on AMO-CFZ (PI alone) it was 156 nM; in the data set with AMO-CFZ (read-out: BTZ) it was 89.3 nM; in the data set on AMO-1 (read-out: BTZ) it was 6.3 nM; in the data set with AMO-BTZ (read-out: BTZ) it was 1340 nM.
Consider `CC(C)C[C@H](NC(=O)[C@H](CCc1ccccc1)NC(=O)CN1CCOCC1)C(=O)N[C@@H](Cc1ccccc1)C(=O)N[C@@H](CC(C)C)C(=O)[C@@]1(C)CO1` [CFZ, carfilzomib], for which the IC50 in data set [1] is 613 nM; in data set [2] it was 78.5 nM; in data set [3] it was 824 nM; in the data set on AMO-CFZ (read-out: CFZ), 892 nM; in data set [4], 796 nM; in the data set with AMO-1 (read-out: CFZ), 4.8 nM. The IC50 in the data set on AMO-BTZ (read-out: CFZ) was found to be 67.2 nM.
Regarding `CC(C)C[C@H](NC(=O)[C@@H](NC(=O)c1cccc(-c2ccccc2)n1)[C@@H](C)O)B(O)O` [Delanzomib], the values for the IC50 (in data set [1]; in data set [2]; in the data set with AMO-CFZ (PI alone)) were 294 nM, 80.5 nM and 1040 nM, respectively.
In the same order, the values of `CC(C)C[C@H](NC(=O)CNC(=O)c1cc(Cl)ccc1Cl)B(O)O` [Ixazomib] are 692 nM, 345 nM and 1280 nM.
As for `C[C@@]12OC(=O)[C@]1([C@@H](O)[C@@H]1C=CCCC1)NC(=O)[C@@H]2CCCl` [Marizomib], the IC50 amounted to 61.4 nM in data set [1] and 32.9 nM in data set [2].
With `COC[C@H](NC(=O)c1cnc(C)s1)C(=O)N[C@@H](COC)C(=O)N[C@@H](Cc1ccccc1)C(=O)[C@@]1(C)CO1` [Oprozomib], the IC50 in data set [1] stood at 1470 nM; in data set [2], 221 nM; with AMO-CFZ (PI alone), 1320 nM.
`Cc1[nH]c2ccccc2c1CCNCc1ccc(/C=C/C(=O)NO)cc1` [Panobinostat]: the values for the IC50 in data set [1] and in data set [2] were 220 nM and 49.5 nM, respectively.
With `COC(=O)[C@H]1[C@H]2C[C@@H]3c4[nH]c5cc(OC)ccc5c4CCN3C[C@H]2C[C@@H](OC(=O)c2cc(OC)c(OC)c(OC)c2)[C@@H]1OC` [RSP, reserpine], the “MitoTracker Green FM and MVB003 efflux (flow cytometry) in ABCB1-overexpressing” value at ABCB1 is on record as “Addition of VPM or reserpine (RSP) in the micromolar range led to a sizable, dose-dependent increase in cellular fluorescence”.
